Measurements: ChEMBL document CHEMBL5209590, “Membrane potential based transport assay for SLC7A3 using HEK293 JumpIn SLC7A3 OE cells” (2022)

What follows are compounds tested against Cationic amino acid transporter 3 (Homo sapiens, UniProt Q8WY07) (assay: Substrate uptake by the Cationic Amino Acid Transporter (CAT-3, SLC7A3) as assessed by the fluorescent FLIPR membrane potential dye in HEK-293 JumpIN-SLC7A3 cells (PubChem AID: 1745863)).
Cationic amino acid transporter 3, sequence (Q8WY07 whole entry): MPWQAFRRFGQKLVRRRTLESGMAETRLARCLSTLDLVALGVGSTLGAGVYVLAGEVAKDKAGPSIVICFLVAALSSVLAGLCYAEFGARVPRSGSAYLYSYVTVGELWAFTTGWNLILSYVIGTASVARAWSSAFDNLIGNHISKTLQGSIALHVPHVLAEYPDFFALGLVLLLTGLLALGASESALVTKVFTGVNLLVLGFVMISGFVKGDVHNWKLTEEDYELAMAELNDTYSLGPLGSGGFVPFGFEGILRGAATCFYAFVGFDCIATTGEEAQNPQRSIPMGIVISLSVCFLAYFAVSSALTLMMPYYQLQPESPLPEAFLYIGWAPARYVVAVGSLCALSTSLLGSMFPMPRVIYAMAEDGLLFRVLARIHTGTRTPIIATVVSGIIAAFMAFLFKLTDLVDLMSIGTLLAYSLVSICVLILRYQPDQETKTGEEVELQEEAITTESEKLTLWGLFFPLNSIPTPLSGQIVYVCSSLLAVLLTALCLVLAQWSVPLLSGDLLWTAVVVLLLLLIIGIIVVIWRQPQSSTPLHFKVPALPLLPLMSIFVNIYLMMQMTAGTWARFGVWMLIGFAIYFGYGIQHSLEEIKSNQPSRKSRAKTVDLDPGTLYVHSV
Format: functional, cell-based, HEK293
`NCCC[C@H](N)C(=O)O` gave an EC50 of 237 µM. `N=C(N)NCCC[C@H](N)C(=O)O` [ARGININE] was tested, and the EC50 was 283 µM. `NCCCC[C@H](N)C(=O)O` [LYSINE] showed an EC50 of 158 µM.
